This is an account of results in ChEMBL document CHEMBL1125924, “Thienotriazolodiazepines as platelet-activating factor antagonists. Steric limitations for the substituent in position 2” (J Med Chem, 1991).

For assay [1], the system named is Cavia porcellus. Kind of assay: In vivo inhibitory dose against PAF-induced bronchoconstriction in guinea pig upon intravenous administration after one-minute pre-treatment time. The format is functional. The following applies: read-out: ID50 (the source's name).
Assay [2] relates to Cavia porcellus. In words: In vivo inhibitory dose against PAF-induced bronchoconstriction in guinea pig upon peroral administration after […] pretreatment time. In kind it is functional. The conditions noted are these: po, read-out: ID50 (the source's name).
Assay [3] relates to Cavia porcellus. Kind of assay: In vivo inhibition against PAF-induced bronchoconstriction in guinea pig at 1 mg/kg dose upon peroral administration after […] pre-treatment time. The format is functional. The following applies: route oral.
Assay [4] deals with Cavia porcellus. Kind of assay: In vivo inhibitory dose against PAF-induced bronchoconstriction in guinea pig upon intravenous administration after one-minute pretreatment time; IA=Inactive. In kind it is functional, organism-based.
Assay [5] is described as follows: In vitro for platelet activating factor receptor antagonist activity in a binding assay using washed whole dog platelets.

Calls of active or inactive are those of the source. The rule behind the calls is not given here.

For orientation: inhibition in vivo means the percentage by which the read-out fell short of the control. For the compound `Cc1nnc2n1-c1sc(CCc3ccc4c(c3)CCC4)cc1C(c1ccccc1Cl)=NC2`, the ED50 stood at 0.04 mg/kg with Cavia porcellus [1] and 0.03 mg/kg with Cavia porcellus [2]. In addition, the inhibition in vivo at 1 mg/kg in the assay with Cavia porcellus [3] was determined as 99%.

Consider `CCCCc1ccc(/C=C\c2cc3c(s2)-n2c(C)nnc2CN=C3c2ccccc2Cl)cc1`, for which the ED50 with Cavia porcellus [1] turned out to be 0.0004 mg/kg; in the assay with Cavia porcellus [2] it was 0.35 mg/kg. In the assay on Cavia porcellus [3], the inhibition in vivo at 1 mg/kg worked out at 93%.

Regarding `Cc1nnc2n1-c1sc(C#Cc3cccc4ccccc34)cc1C(c1ccccc1Cl)=NC2`, the ED50 in the assay with Cavia porcellus [1] is 0.03 mg/kg. In addition, in the assay on Cavia porcellus [3], the inhibition in vivo at 1 mg/kg came out at 14%.

Turning to `Cc1nnc2n1-c1sc(CCC(=O)N3CCOCC3)cc1C(c1ccccc1Cl)=NC2` [APAFANT], the ED50 in the assay with Cavia porcellus [1] was 0.03 mg/kg; in the assay with Cavia porcellus [2], 1.2 mg/kg. In addition, the inhibition in vivo at 1 mg/kg with Cavia porcellus [3] was 42%.

In the case of `Cc1nnc2n1-c1sc(/C(CC(=O)N3CCOCC3)=N\N)cc1C(c1ccccc1Cl)=NC2`, the ED50 in the assay with Cavia porcellus [1] turned out to be 0.5 mg/kg. In addition, the inhibition in vivo at 1 mg/kg with Cavia porcellus [3] was found to be 12%.

For the compound `Cc1nnc2n1-c1sc(C#CCO)cc1C(c1ccccc1Cl)=NC2`, in the assay on Cavia porcellus [1], the ED50 amounted to 0.02 mg/kg. For the same compound, in the assay on Cavia porcellus [3], the inhibition in vivo at 1 mg/kg amounted to 20%.

As to `Cc1nnc2n1-c1sc(CCc3ccc(CC(C)C)cc3)cc1C(c1ccccc1Cl)=NC2`, the ED50 turned out to be 0.002 mg/kg in the assay on Cavia porcellus [1] and 0.03 mg/kg in the assay on Cavia porcellus [2]. Also, in the assay with Cavia porcellus [3], the inhibition in vivo at 1 mg/kg was determined as 99%.

In the case of `Cc1nnc2n1-c1sc(/C=C\c3ccc(CC(C)C)cc3)cc1C(c1ccccc1Cl)=NC2`, the ED50 in the assay with Cavia porcellus [1] was determined as 0.004 mg/kg; with Cavia porcellus [2], 0.03 mg/kg. For the same compound, the inhibition in vivo at 1 mg/kg with Cavia porcellus [3] was 99%.

With `Cc1nnc2n1-c1sc(C#Cc3ccc(-c4ccccn4)s3)cc1C(c1ccccc1Cl)=NC2`, the figures for the ED50 in the assay on Cavia porcellus [1] and in the assay with Cavia porcellus [2] were 0.003 mg/kg and 0.08 mg/kg, respectively. The inhibition in vivo at 1 mg/kg in the assay on Cavia porcellus [3] is 93%.

Turning to `Cc1nnc2n1-c1sc(CCc3ccc(C4CCCCC4)cc3)cc1C(c1ccccc1Cl)=NC2`, the ED50 came out at 0.005 mg/kg with Cavia porcellus [1] and 0.4 mg/kg in the assay with Cavia porcellus [2]. Further, the inhibition in vivo at 1 mg/kg with Cavia porcellus [3] came to 68%.

Take `Cc1nnc2n1-c1sc(/C=C\c3ccc(C4CCCCC4)cc3)cc1C(c1ccccc1Cl)=NC2`: the ED50 with Cavia porcellus [1] worked out at 0.03 mg/kg; in the assay on Cavia porcellus [2], 0.4 mg/kg. Besides, the inhibition in vivo at 1 mg/kg with Cavia porcellus [3] was determined as 85%.

`Cc1nnc2n1-c1sc(C#Cc3ccc(C4CCCCC4)cc3)cc1C(c1ccccc1Cl)=NC2`: the ED50 in the assay on Cavia porcellus [1] is 0.3 mg/kg. Further, the inhibition in vivo at 1 mg/kg with Cavia porcellus [3] came out at 22%.

For the compound `CCCCc1ccc(CCc2cc3c(s2)-n2c(C)nnc2CN=C3c2ccccc2Cl)cc1`, the ED50 in the assay on Cavia porcellus [1] was determined as 0.003 mg/kg; with Cavia porcellus [2] it was 0.2 mg/kg. Moreover, the inhibition in vivo at 1 mg/kg with Cavia porcellus [3] came to 98%.

`Cc1nnc2n1-c1sc(CCc3ccc(-c4ccccn4)s3)cc1C(c1ccccc1Cl)=NC2`: the ED50 amounted to 0.003 mg/kg with Cavia porcellus [1] and 0.4 mg/kg in the assay on Cavia porcellus [2]. Moreover, the inhibition in vivo at 1 mg/kg in the assay with Cavia porcellus [3] worked out at 89%.

With `Cc1nnc2n1-c1sc(-c3cc(O)[nH]n3)cc1C(c1ccccc1Cl)=NC2`, the ID50 result with Cavia porcellus [4] is “inactive”.

With `Cc1nnc2n1-c1sc(CCc3ccc(-n4ccnc4)cc3)cc1C(c1ccccc1Cl)=NC2`, the ED50 in the assay with Cavia porcellus [1] amounted to 0.003 mg/kg; in the assay with Cavia porcellus [2], 0.4 mg/kg. In the assay with Cavia porcellus [3], the inhibition in vivo at 1 mg/kg came out at 95%.

For `Cc1nnc2n1-c1sc(-c3[nH]nnc3C(=O)N3CCOCC3)cc1C(c1ccccc1Cl)=NC2`, the ID50 entry in the assay on Cavia porcellus [4] is “inactive”.

Turning to `Cc1nnc2n1-c1sc(/C=C\C(=O)N3CCOCC3)cc1C(c1ccccc1Cl)=NC2`, in the assay with Cavia porcellus [1], the ED50 was found to be 0.06 mg/kg. In the assay on Cavia porcellus [3], the inhibition in vivo at 1 mg/kg worked out at 20%.

Turning to `Cc1nnc2n1-c1sc(/C=C\c3ccc4c(c3)CCC4)cc1C(c1ccccc1Cl)=NC2`, the ED50 in the assay with Cavia porcellus [1] came to 0.03 mg/kg; in the assay on Cavia porcellus [2] it was 0.7 mg/kg. For the same compound, the inhibition in vivo at 1 mg/kg in the assay with Cavia porcellus [3] amounted to 58%.

Consider `C#Cc1cc2c(s1)-n1c(C)nnc1CN=C2c1ccccc1Cl`, for which the ED50 with Cavia porcellus [1] is 0.02 mg/kg. Also, the inhibition in vivo at 1 mg/kg with Cavia porcellus [3] amounted to 9%.

With `Cc1nnc2n1-c1sc(Br)cc1C(c1ccccc1Cl)=NC2` [BROTIZOLAM], the ED50 in the assay with Cavia porcellus [1] was found to be 0.5 mg/kg. The inhibition in vivo at 1 mg/kg in the assay with Cavia porcellus [3] was determined as 11%.

Consider `Cc1nnc2n1-c1sc(C#CC(=O)N3CCOCC3)cc1C(c1ccccc1Cl)=NC2`, for which the ED50 with Cavia porcellus [1] turned out to be 0.5 mg/kg. Further, the inhibition in vivo at 1 mg/kg in the assay on Cavia porcellus [3] turned out to be 16%.

In the case of `Cc1nnc2n1-c1sc(C#Cc3ccc4c(c3)CCO4)cc1C(c1ccccc1Cl)=NC2`, the ED50 in the assay on Cavia porcellus [1] was 0.2 mg/kg. In addition, the inhibition in vivo at 1 mg/kg with Cavia porcellus [3] was determined as 7%.

In the case of `Cc1nnc2n1-c1sc(CCc3ccc4c(c3)CCO4)cc1C(c1ccccc1Cl)=NC2`, in the assay with Cavia porcellus [1], the ED50 is 0.003 mg/kg. For the same compound, the inhibition in vivo at 1 mg/kg in the assay on Cavia porcellus [3] is 44%.

On to `Cc1nnc2n1-c1sc(C#Cc3ccc(CC(C)C)cc3)cc1C(c1ccccc1Cl)=NC2`, for which the ED50 with Cavia porcellus [1] stood at 0.3 mg/kg. Also, the inhibition in vivo at 1 mg/kg in the assay on Cavia porcellus [3] was 2%.

Turning to `Cc1nnc2n1-c1sc(C#Cc3ccc4c(c3)CCC4)cc1C(c1ccccc1Cl)=NC2`, in the assay with Cavia porcellus [1], the ED50 is 0.2 mg/kg. The inhibition in vivo at 1 mg/kg in the assay with Cavia porcellus [3] is 20%.

For orientation: IC50 means the concentration that gives 50% inhibition. Higher therefore signals weaker potency in that assay. For the compound `Cc1nnc2n1-c1sc(I)cc1C(c1ccccc1Cl)=NC2`, in the assay with Cavia porcellus [1], the ED50 stood at 0.2 mg/kg. For the same compound, the inhibition in vivo at 1 mg/kg with Cavia porcellus [3] was 4%. Further, the IC50 in assay [5] is 370 nM.

As to `Cc1nnc2n1-c1sc(C#Cc3ccccc3)cc1C(c1ccccc1Cl)=NC2`, in the assay with Cavia porcellus [1], the ED50 came out at 3 mg/kg. Besides, the inhibition in vivo at 1 mg/kg in the assay on Cavia porcellus [3] came out at 6%.

For `Cc1cc(CCc2cc3c(s2)-n2c(C)nnc2CN=C3c2ccccc2Cl)cc2c1OC(C)(C)C2`, the ED50 in the assay with Cavia porcellus [1] was 0.01 mg/kg; in the assay on Cavia porcellus [2], 0.3 mg/kg. Moreover, the inhibition in vivo at 1 mg/kg in the assay with Cavia porcellus [3] is 96%.

In the case of `Cc1nnc2n1-c1sc(/C=C\c3ccccn3)cc1C(c1ccccc1Cl)=NC2`, the ED50 with Cavia porcellus [1] stood at 0.05 mg/kg. For the same compound, the inhibition in vivo at 1 mg/kg in the assay with Cavia porcellus [3] worked out at 20%.

Consider `Cc1nnc2n1-c1sc(C#Cc3ccccn3)cc1C(c1ccccc1Cl)=NC2`, for which the ED50 with Cavia porcellus [1] turned out to be 0.06 mg/kg. The inhibition in vivo at 1 mg/kg in the assay on Cavia porcellus [3] is 5%.

For the compound `CCCCc1ccc(C#Cc2cc3c(s2)-n2c(C)nnc2CN=C3c2ccccc2Cl)cc1`, the ED50 in the assay with Cavia porcellus [1] was determined as 0.2 mg/kg. Also, the inhibition in vivo at 1 mg/kg in the assay on Cavia porcellus [3] is 6%.

For `Cc1nnc2n1-c1sc(/C=C/C(=O)N3CCOCC3)cc1C(c1ccccc1Cl)=NC2`, the ED50 with Cavia porcellus [1] worked out at 0.4 mg/kg. For the same compound, in the assay on Cavia porcellus [3], the inhibition in vivo at 1 mg/kg was 27%.

On to `Cc1cc(C#Cc2cc3c(s2)-n2c(C)nnc2CN=C3c2ccccc2Cl)cc2c1OC(C)(C)C2`, for which the ID50 entry with Cavia porcellus [4] was “inactive”.

With `Cc1nnc2n1-c1sc(C#C[Si](C)(C)C)cc1C(c1ccccc1Cl)=NC2`, the ED50 in the assay with Cavia porcellus [1] amounted to 0.3 mg/kg. Also, the inhibition in vivo at 1 mg/kg in the assay on Cavia porcellus [3] came out at 28%.
